US12281363B2, “Methods for detecting antiviral-drug resistant virus” (Secretary of State for Health and Social Care, priority 2018, dated 2025)
Like-named read-outs stand apart in the source and are kept apart here.

Tested on: HSV-1
Assay: Plaque reduction assay, HSV-1 clinical isolates on Vero cells
Assay type: cell-based
Details: Human alphaherpesvirus 1, Vero
Outline: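 Susceptibility of HSV-1 isolates was read as percent plaque reduction versus no-drug control, counted on fixed, crystal-violet-stained sub-confluent Vero cells infected at 75 PFU/well beneath CMC. Intermediate resistance lies between cut-offs ACV <3/>40 μM, PCV <10/>40 μM, CDV <24/>30 μM, FOS <250/>400 μM.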

`Nc1nc2c(ncn2CCC(CO)CO)c(=O)[nH]1` [Penciclovir, penciclovir] was tested. Which IC50 (isolate HPG033, HSV-1 TK I358L (1072A>C), also TK T287M, read-out: Drug susceptibility (IC50 value)) did it give?
Its IC50 is greater than 160 µM.

And the IC50 (isolate HPG033, HSV-1 TK I358L (1072A>C), also TK T287M, read-out: Drug susceptibility Penciclovir (PCV))?
The IC50 was greater than 40 µM.

And the IC50 (isolate HPG033, HSV-1 pol N1046T (3137A>C), also TK T287M, pol A1169T, read-out: Drug susceptibility (IC50 value))?
Its IC50 is greater than 160 µM.

And the IC50 (isolate HPG033, HSV-1 pol N1046T (3137A>C), also TK T287M, pol A1169T, read-out: Drug susceptibility Penciclovir (PCV))?
The IC50 was greater than 40 µM.

And the IC50 (isolate HPG035, HSV-1 pol S239L (716C>T), also pol S724N, read-out: Drug susceptibility (IC50 value))?
The IC50 was 14.6 µM.

What about the IC50 (isolate HPG035, HSV-1 pol S239L (716C>T), also pol S724N, read-out: Drug susceptibility Penciclovir (PCV)) of the same compound?
The IC50 was 10 to 40 µM.

What about the IC50 (isolate HPG037, HSV-1 TK L69M (205>A), also TK Y239H, read-out: Drug susceptibility Penciclovir (PCV)) of the same compound?
Its IC50 is greater than 40 µM.

And the IC50 (isolate HPG037, HSV-1 TK R256W (766C>T), read-out: Drug susceptibility (IC50 value))?
The IC50 was greater than 160 µM.

What about the IC50 (isolate HPG037, HSV-1 TK R256W (766C>T), read-out: Drug susceptibility Penciclovir (PCV)) of the same compound?
The IC50 was greater than 40 µM.

What about the IC50 (isolate HPG037, HSV-1 TK Y239H (715T>C), read-out: Drug susceptibility (IC50 value)) of the same compound?
The IC50 was greater than 160 µM.

What about the IC50 (isolate HPG037, HSV-1 TK Y239H (715T>C), read-out: Drug susceptibility Penciclovir (PCV)) of the same compound?
Its IC50 is greater than 40 µM.

And the IC50 (isolate HPG039, HSV-1 TK 85* or H58fs (169delC, 170delC, 171delC, or 172delC), read-out: Drug susceptibility (IC50 value))?
Its IC50 is 158 µM.

And the IC50 (isolate HPG039, HSV-1 TK 85* or H58fs (169delC, 170delC, 171delC, or 172delC), read-out: Drug susceptibility Penciclovir (PCV))?
Its IC50 is greater than 40 µM.

What about the IC50 (isolate HPG040, HSV-1 pol S911N (2732G>A), also TK deletion (C) nt 896-900, pol A1169T, read-out: Drug susceptibility (IC50 value)) of the same compound?
The IC50 was greater than 160 µM.

And the IC50 (isolate HPG040, HSV-1 pol S911N (2732G>A), also TK deletion (C) nt 896-900, pol A1169T, read-out: Drug susceptibility Penciclovir (PCV))?
The IC50 was greater than 40 µM.

And the IC50 (isolate HPG041, HSV-1 pol S911N (2732G>A), also pol A1169T, read-out: Drug susceptibility (IC50 value))?
Its IC50 is 3 µM.

What about the IC50 (isolate HPG041, HSV-1 pol S911N (2732G>A), also pol A1169T, read-out: Drug susceptibility Penciclovir (PCV)) of the same compound?
The IC50 was less than 10 µM.

And the IC50 (isolate HPG042, HSV-1 pol A972V (2915C>T), also TK deletion (C) nt 881-885, pol A1169T, read-out: Drug susceptibility (IC50 value))?
The IC50 was greater than 160 µM.

And the IC50 (isolate HPG042, HSV-1 pol A972V (2915C>T), also TK deletion (C) nt 881-885, pol A1169T, read-out: Drug susceptibility Penciclovir (PCV))?
The IC50 was greater than 40 µM.

And the IC50 (isolate HPG042, HSV-1 pol G22R (64G>A), also TK deletion (C) nt 881-885, pol A1169T, read-out: Drug susceptibility (IC50 value))?
Its IC50 is greater than 160 µM.

What about the IC50 (isolate HPG042, HSV-1 pol G22R (64G>A), also TK deletion (C) nt 881-885, pol A1169T, read-out: Drug susceptibility Penciclovir (PCV)) of the same compound?
The IC50 was greater than 40 µM.

And the IC50 (isolate HPG043, HSV-1 TK 183* (437_438insA), read-out: Drug susceptibility (IC50 value))?
Its IC50 is greater than 160 µM.

And the IC50 (isolate HPG043, HSV-1 TK 183* (437_438insA), read-out: Drug susceptibility Penciclovir (PCV))?
Its IC50 is greater than 40 µM.

And the IC50 (isolate HPG045, HSV-1 TK L49R (146T>G), read-out: Drug susceptibility (IC50 value))?
Its IC50 is greater than 160 µM.

And the IC50 (isolate HPG045, HSV-1 TK L49R (146T>G), read-out: Drug susceptibility Penciclovir (PCV))?
The IC50 was greater than 40 µM.

What about the IC50 (isolate HPG045, HSV-1 pol L419I (1255C>A), also TK L49R, pol A1169T, read-out: Drug susceptibility (IC50 value)) of the same compound?
Its IC50 is greater than 160 µM.

And the IC50 (isolate HPG045, HSV-1 pol L419I (1255C>A), also TK L49R, pol A1169T, read-out: Drug susceptibility Penciclovir (PCV))?
The IC50 was greater than 40 µM.

And the IC50 (isolate HPG046, HSV-1 TK I166N (497T>A), read-out: Drug susceptibility (IC50 value))?
Its IC50 is 98.5 µM.

What about the IC50 (isolate HPG046, HSV-1 TK I166N (497T>A), read-out: Drug susceptibility Penciclovir (PCV)) of the same compound?
Its IC50 is greater than 40 µM.

What about the IC50 (isolate HPG047, HSV-1 pol E680 (2039A>C), also TK deletion (C) nt 548-553, pol A1169T, read-out: Drug susceptibility Penciclovir (PCV)) of the same compound?
Its IC50 is greater than 40 µM.

And the IC50 (isolate HPG050, HSV-1 TK Q34* (100C>T), read-out: Drug susceptibility (IC50 value))?
The IC50 was greater than 160 µM.

And the IC50 (isolate HPG050, HSV-1 TK Q34* (100C>T), read-out: Drug susceptibility Penciclovir (PCV))?
The IC50 was greater than 40 µM.

And the IC50 (isolate HPG051, HSV-1 pol D83A (248A>C), also TK R176stop, read-out: Drug susceptibility (IC50 value))?
The IC50 was greater than 160 µM.

What about the IC50 (isolate HPG051, HSV-1 pol D83A (248A>C), also TK R176stop, read-out: Drug susceptibility Penciclovir (PCV)) of the same compound?
Its IC50 is greater than 40 µM.

What about the IC50 (isolate HPG052, HSV-1 TK Q34* (100C>T), read-out: Drug susceptibility (IC50 value)) of the same compound?
Its IC50 is 25 µM.

And the IC50 (isolate HPG052, HSV-1 TK Q34* (100C>T), read-out: Drug susceptibility Penciclovir (PCV))?
Its IC50 is 10 to 40 µM.

What about the IC50 (isolate HPG053, HSV-1 pol L802R + A834S (2405T>G, 2500G>T), also TK R176W, read-out: Drug susceptibility Penciclovir (PCV)) of the same compound?
Its IC50 is greater than 40 µM.

And the IC50 (isolate HPG053, HSV-1 pol S911N (2732G>A), also TK R176W, pol A1169T, read-out: Drug susceptibility (IC50 value))?
Its IC50 is greater than 160 µM.

What about the IC50 (isolate HPG053, HSV-1 pol S911N (2732G>A), also TK R176W, pol A1169T, read-out: Drug susceptibility Penciclovir (PCV)) of the same compound?
Its IC50 is greater than 40 µM.

And the IC50 (isolate HPG054, HSV-1 pol E992K (2974G>A), also TK insert (G) nt 430-436, pol A1169T, read-out: Drug susceptibility (IC50 value))?
Its IC50 is greater than 160 µM.

What about the IC50 (isolate HPG054, HSV-1 pol E992K (2974G>A), also TK insert (G) nt 430-436, pol A1169T, read-out: Drug susceptibility Penciclovir (PCV)) of the same compound?
Its IC50 is greater than 40 µM.

What about the IC50 (isolate HPG055, HSV-1 TK V204G (611T>G), also pol A1169AT, read-out: Drug susceptibility (IC50 value)) of the same compound?
Its IC50 is 9.34 µM.

What about the IC50 (isolate HPG055, HSV-1 TK V204G (611T>G), also pol A1169AT, read-out: Drug susceptibility Penciclovir (PCV)) of the same compound?
The IC50 was less than 10 µM.

What about the IC50 (read-out: Drug susceptibility (IC50 value), isolate HPG005, HSV-1 TK A192T (574G>A)) of the same compound?
The IC50 was 5.19 µM.

What about the IC50 (read-out: Drug susceptibility (IC50 value), isolate HPG006, HSV-1 pol G121S (361G>A), also a TK resistance mutation (footnote a)) of the same compound?
Its IC50 is greater than 160 µM.

And the IC50 (read-out: Drug susceptibility (IC50 value), isolate HPG012, HSV-1 pol G985E (2954G>A), also TK A93V)?
The IC50 was 9.67 µM.

And the IC50 (read-out: Drug susceptibility (IC50 value), isolate HPG016, HSV-1 pol A1169T (3505G>A))?
The IC50 was 7.19 µM.

And the IC50 (read-out: Drug susceptibility (IC50 value), isolate HPG037, HSV-1 TK L69M (205>A), also TK Y239H)?
Its IC50 is greater than 160 µM.

What about the IC50 (read-out: Drug susceptibility (IC50 value), isolate HPG042, HSV-1 TK frameshift (881delC to 885delC)) of the same compound?
The IC50 was greater than 160 µM.

And the IC50 (read-out: Drug susceptibility (IC50 value), isolate HPG047, HSV-1 pol E680 (2039A>C), also TK deletion (C) nt 548-553, pol A1169T)?
The IC50 was greater than 160 µM.

And the IC50 (read-out: Drug susceptibility Penciclovir (PCV), isolate HPG005, HSV-1 TK A192T (574G>A))?
The IC50 was less than 10 µM.

And the IC50 (read-out: Drug susceptibility Penciclovir (PCV), isolate HPG006, HSV-1 pol G121S (361G>A), also a TK resistance mutation (footnote a))?
Its IC50 is greater than 40 µM.

What about the IC50 (read-out: Drug susceptibility Penciclovir (PCV), isolate HPG012, HSV-1 pol G985E (2954G>A), also TK A93V) of the same compound?
The IC50 was 10 to 40 µM.

And the IC50 (read-out: Drug susceptibility Penciclovir (PCV), isolate HPG016, HSV-1 pol A1169T (3505G>A))?
The IC50 was less than 10 µM.

And the IC50 (read-out: Drug susceptibility Penciclovir (PCV), isolate HPG042, HSV-1 TK frameshift (881delC to 885delC))?
The IC50 was greater than 40 µM.
